Reference: patent publication US20210009542A1 (Calico Life Sciences LLC, priority 2018, published 2021)
Read-outs that look alike come from different tables or passages of the source.

What was measured:
[1] = molecular target: T1, His tagged PTPN2 (TC45) protein (Homo sapiens, UniProt P17706); experiment: Mobility shift assay (MSA) for potency of PTPN2 inhibitors; assay type: biochemical; settings: read-out: PTPN2 MSA IC50
T1 construct: made in house
T1 sequence (P17706 with tags, fused parts or gaps isoform P17706-2): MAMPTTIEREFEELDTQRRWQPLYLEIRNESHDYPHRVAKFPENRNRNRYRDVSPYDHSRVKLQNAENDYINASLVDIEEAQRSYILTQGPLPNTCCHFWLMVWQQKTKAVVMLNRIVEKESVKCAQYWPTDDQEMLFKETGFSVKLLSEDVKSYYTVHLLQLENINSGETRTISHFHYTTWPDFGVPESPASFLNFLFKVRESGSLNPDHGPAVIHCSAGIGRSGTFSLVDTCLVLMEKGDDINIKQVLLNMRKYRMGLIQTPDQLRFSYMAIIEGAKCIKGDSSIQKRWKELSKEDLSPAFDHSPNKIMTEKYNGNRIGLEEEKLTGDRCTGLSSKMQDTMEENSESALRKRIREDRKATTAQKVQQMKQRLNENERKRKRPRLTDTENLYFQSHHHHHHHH
In short: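 IC50 values were derived from % inhibition of substrate conversion, measured by microfluidic mobility shift (ex 488/em 530) after quenching. The fluorescent phosphotyrosine insulin-receptor peptide ([…]) reacted for 10 min at room temperature with 0.5 nM His-tagged TC45 PTPN2 that had been preincubated 10 min with compound (12 points, 1:3). Buffer was HEPES pH 7.5 with EGTA, EDTA, Tween 20 and DTT.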

[2] = system: B16F10 mouse melanoma cells; experiment: B16F10 IFNγ-induced cellular growth inhibition assay; assay type: cell-based; settings: Mus musculus, B16-F10, 33 μM compound
In short: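 Live-cell imaging of confluence every 6 h over 5 days at 37 °C tracked growth of mouse B16F10 melanoma cells seeded overnight at 500/well. Semi-log compound series (final 100–0.001 μM, 0.1% DMSO) ran in both arms, ±IFNγ at 0.5 ng/mL final; inhibition taken relative to DMSO plus IFNγ when IFNγ-free DMSO wells passed 95% confluence.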

[3] = molecular target: T2, His tagged full-length PTP1B protein (Homo sapiens, UniProt P18031); experiment: Mobility shift assay (MSA) for potency of PTP1B inhibitors; assay type: biochemical
T2 construct: made in house
T2 sequence (P18031 with tags, fused parts or gaps): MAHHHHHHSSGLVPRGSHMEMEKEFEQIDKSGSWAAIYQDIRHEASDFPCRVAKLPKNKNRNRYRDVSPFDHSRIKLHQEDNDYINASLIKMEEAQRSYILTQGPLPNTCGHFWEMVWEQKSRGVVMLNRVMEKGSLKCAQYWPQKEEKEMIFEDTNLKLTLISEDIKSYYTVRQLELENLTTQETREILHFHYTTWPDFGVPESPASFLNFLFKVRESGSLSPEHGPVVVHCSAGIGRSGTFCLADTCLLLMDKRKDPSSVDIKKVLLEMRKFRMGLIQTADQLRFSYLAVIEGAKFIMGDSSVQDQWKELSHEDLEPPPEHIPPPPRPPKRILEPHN
Protocol: The enzymatic assay used to determine activity is a mobility shift assay using a LabChip EZ Reader by Caliper Life Sciences. The enzymatic reaction was carried out in assay buffer (50 mM HEPES pH 7.5, 1 mM EGTA, 10 mM EDTA, 0.01% Tween® 20, and 2 mM DTT). […] The enzyme (at 0.5 nM) was incubated with compound for 10 minutes at room temperature. […] The % inhibition was then used to calculate the IC50 values.

[4] = +0.5 ng/mL IFNγ, relative to DMSO control, read-out: % B16F10 growth inhibition (+0.5 ng/mL IFNγ) @ 33 μM
[5] = no IFNγ, read-out: % B16F10 growth inhibition (no IFNγ) @ 33 μM

| Structure (SMILES) | IC50 [3] [nM] | IC50 [1] [nM] | inhibition at 33 µM [2, 4] [%] | inhibition at 33 µM [2, 5] [%] |
| --- | --- | --- | --- | --- |
| O=C1CN(c2c(O)cc3ccc(C4CCN(S(=O)(=O)C5CC5)C4)cc3c2F)S(=O)(=O)N1 (stereo not shown) [Compound 101, 5-{7-[1-(cyclopropanesulfonyl)pyrrolidin-3-yl]-1-fluoro-3-hydroxynaphthalen-2-yl}-1λ^6,2,5-thiadiazolidine-1,1,3-trione] | 1 to 10 | < 1 | 60 to 90 | < 25 |
| O=C1CN(c2c(O)cc3ccc(C4CCNC4)cc3c2F)S(=O)(=O)N1 (stereo not shown) [Compound 102, 5-[1-fluoro-3-hydroxy-7-(pyrrolidin-3-yl)naphthalen-2-yl]-1λ^6,2,5-thiadiazolidine-1,1,3-trione] | 10 to 100 | 1 to 10 | 60 to 90 | < 25 |
| O=C1CN(c2c(O)cc3ccc(OCCC4CCNCC4)cc3c2F)S(=O)(=O)N1 [Compound 108, 5-{1-fluoro-3-hydroxy-7-[2-(piperidin-4-yl)ethoxy]naphthalen-2-yl}-1λ^6,2,5-thiadiazolidine-1,1,3-trione] | 1 to 10 | 1 to 10 | 25 to 59 | < 25 |
| CC(C)N1CCC(F)(COc2ccc3cc(O)c(N4CC(=O)NS4(=O)=O)c(F)c3c2)C1 (stereo not shown) [Compound 109, 5-(1-fluoro-7-{[3-fluoro-1-(propan-2-yl)pyrrolidin-3-yl]methoxy}-3-hydroxynaphthalen-2-yl)-1λ^6,2,5-thiadiazolidine-1,1,3-trione] | 10 to 100 | 1 to 10 | < 25 | < 25 |
| O=C1CN(c2c(O)cc3ccc(OCC4(F)CCNC4)cc3c2F)S(=O)(=O)N1 (stereo not shown) [Compound 110, 5-{1-fluoro-7-[(3-fluoropyrrolidin-3-yl)methoxy]-3-hydroxynaphthalen-2-yl}-1λ^6,2,5-thiadiazolidine-1,1,3-trione] | 10 to 100 | 1 to 10 | 60 to 90 | < 25 |
| NC12CC(CCOc3ccc4cc(O)c(N5CC(=O)NS5(=O)=O)c(F)c4c3)(C1)C2 [Compound 121, 5-{7-[2-(3-aminobicyclo[1.1.1]pentan-1-yl)ethoxy]-1-fluoro-3-hydroxynaphthalen-2-yl}-1λ^6,2,5-thiadiazolidine-1,1,3-trione] | 1 to 10 | 1 to 10 | 60 to 90 | < 25 |
| CN(C)CCNc1ccc2cc(O)c(N3CC(=O)NS3(=O)=O)c(F)c2c1 [Compound 122, 5-(7-{[2-(dimethylamino)ethyl]amino}-1-fluoro-3-hydroxynaphthalen-2-yl)-1λ^6,2,5-thiadiazolidine-1,1,3-trione] | 10 to 100 | 10 to 100 | 60 to 90 | < 25 |
| CS(=O)(=O)N1CCC(Nc2ccc3cc(O)c(N4CC(=O)NS4(=O)=O)c(F)c3c2)C1 (stereo not shown) [Compound 126, 5-(1-fluoro-3-hydroxy-7-{[1-(methanesulfonyl)pyrrolidin-3-yl]amino}naphthalen-2-yl)-1λ^6,2,5-thiadiazolidine-1,1,3-trione] | 1 to 10 | 1 to 10 | 60 to 90 | < 25 |
| CN(C)CCOc1ccc2cc(O)c(N3CC(=O)NS3(=O)=O)c(F)c2c1 [Compound 131, 5-{7-[2-(dimethylamino)ethoxy]-1-fluoro-3-hydroxynaphthalen-2-yl}-1λ^6,2,5-thiadiazolidine-1,1,3-trione] | 10 to 100 | 1 to 10 | > 90 | < 25 |
| O=C1CN(c2c(O)cc3ccc(OCC(O)C4CC4)cc3c2F)S(=O)(=O)N1 (stereo not shown) [Compound 150, 5-[7-(2-cyclopropyl-2-hydroxyethoxy)-1-fluoro-3-hydroxynaphthalen-2-yl]-1λ^6,2,5-thiadiazolidine-1,1,3-trione] | 1 to 10 | 1 to 10 | > 90 | < 25 |
| CC(O)CCOc1ccc2cc(O)c(N3CC(=O)NS3(=O)=O)c(F)c2c1 (stereo not shown) [Compound 156, 5-[1-fluoro-3-hydroxy-7-(3-hydroxybutoxy)naphthalen-2-yl]-1λ^6,2,5-thiadiazolidine-1,1,3-trione] | 1 to 10 | < 1 | 60 to 90 | < 25 |

More lines, main results first:

| IC50 [3] [nM] | Structure (SMILES) | IC50 [1] [nM] | inhibition at 33 µM [2, 4] [%] | inhibition at 33 µM [2, 5] [%] |
| --- | --- | --- | --- | --- |
| 1 to 10 | CC[C@H]1C[C@@H]1COc1ccc2cc(O)c(N3CC(=O)NS3(=O)=O)c(F)c2c1 (racemic) [Compound 218, 5-(7-{[rac-(1R,2R)-2-ethylcyclopropyl]methoxy}-1-fluoro-3-hydroxynaphthalen-2-yl)-1λ^6,2,5-thiadiazolidine-1,1,3-trione] | 1 to 10 | 25 to 59 | < 25 |
| 10 to 100 | CC(C)CC(=O)Nc1ccc2cc(O)c(N3CC(=O)NS3(=O)=O)c(F)c2c1 [Compound 157, N-[8-fluoro-6-hydroxy-7-(1,1,4-trioxo-1λ^6,2,5-thiadiazolidin-2-yl)naphthalen-2-yl]-3-methylbutanamide] | 1 to 10 | 60 to 90 | < 25 |
| < 1 | O=C1CN(c2c(O)cc3ccc(OCCC4CC4(F)F)cc3c2F)S(=O)(=O)N1 (stereo not shown) [Compound 192, 5-{7-[2-(2,2-difluorocyclopropyl)ethoxy]-1-fluoro-3-hydroxynaphthalen-2-yl}-1λ^6,2,5-thiadiazolidine-1,1,3-trione] | < 1 | 60 to 90 | < 25 |
| 10 to 100 | O=C1CN(c2c(O)cc3ccc(OC(CO)CCl)cc3c2F)S(=O)(=O)N1 (stereo not shown) [Compound 272, 5-{7-[(1-chloro-3-hydroxypropan-2-yl)oxy]-1-fluoro-3-hydroxynaphthalen-2-yl}-1λ^6,2,5-thiadiazolidine-1,1,3-trione] | 1 to 10 | – | – |
| 1 to 10 | O=C1CN(c2c(O)cc3ccc(C4=CCN(S(=O)(=O)C5CCOC5)C4)cc3c2F)S(=O)(=O)N1 (stereo not shown) [Compound 285, 5-{1-fluoro-3-hydroxy-7-[1-(oxolane-3-sulfonyl)-2,5-dihydro-1H-pyrrol-3-yl]naphthalen-2-yl}-1λ^6,2,5-thiadiazolidine-1,1,3-trione] | < 1 | – | – |
| < 1 | CCCS(=O)(=O)N1CC=C(c2ccc3cc(O)c(N4CC(=O)NS4(=O)=O)c(F)c3c2)C1 [Compound 288] | < 1 | – | – |
| < 1 | O=C1CN(c2c(O)cc3ccc(C4=CCN(S(=O)(=O)CC5CCCCO5)C4)cc3c2F)S(=O)(=O)N1 (stereo not shown) [Compound 289, 5-(1-fluoro-3-hydroxy-7-{1-[(oxan-2-yl)methanesulfonyl]-2,5-dihydro-1H-pyrrol-3-yl}naphthalen-2-yl)-1λ^6,2,5-thiadiazolidine-1,1,3-trione] | < 1 | – | – |
| < 1 | O=C1CN(c2c(O)cc3ccc(C4=CCN(S(=O)(=O)CC5COCCO5)C4)cc3c2F)S(=O)(=O)N1 (stereo not shown) [Compound 292, 5-(7-{1-[(1,4-dioxan-2-yl)methanesulfonyl]-2,5-dihydro-1H-pyrrol-3-yl}-1-fluoro-3-hydroxynaphthalen-2-yl)-1λ^6,2,5-thiadiazolidine-1,1,3-trione] | < 1 | – | – |
| < 1 | CCCC(C)S(=O)(=O)N1CC=C(c2ccc3cc(O)c(N4CC(=O)NS4(=O)=O)c(F)c3c2)C1 (stereo not shown) [Compound 294, 5-{1-fluoro-3-hydroxy-7-[1-(pentane-2-sulfonyl)-2,5-dihydro-1H-pyrrol-3-yl]naphthalen-2-yl}-1λ^6,2,5-thiadiazolidine-1,1,3-trione] | < 1 | – | – |
| 1 to 10 | CC(C)S(=O)(=O)N1CCC(c2ccc3cc(O)c(N4CC(=O)NS4(=O)=O)c(F)c3c2)C1 (stereo not shown) [Compound 308, 5-{1-fluoro-3-hydroxy-7-[1-(propane-2-sulfonyl)pyrrolidin-3-yl]naphthalen-2-yl}-1λ^6,2,5-thiadiazolidine-1,1,3-trione] | < 1 | – | – |
